Measured values reported in US20240254140A1, “COMPOUNDS AND THEIR USE IN THE TREATMENT OF BACTERIAL INFECTION” (Hoffmann-La Roche Inc., priority 2021, published 2024).
In brackets after ≈: the same amount, converted by molar mass.

tested on: Escherichia coli ATCC 25922; assay: Minimal Inhibitory Concentration (MIC) determination, broth microdilution; format: cell-based; settings: ATCC25922; strain Escherichia coli ATCC 25922; broth microdilution per CLSI M07-A10; 18-24 hours at 35±2° C.; lowest concentration for complete growth inhibition
Experimental: Minimal Inhibitory Concentration (MIC) Determination:
The MIC of antibacterial compounds against multiple species and strains was determined using the broth microdilution method according to M07-A10 Clinical and Laboratory Standards Institute (CLSI) guidelines, using the appropriate broth medium. In short, the compound plates were prepared by dispensing 100 μL of each stock solution in the first well of a 96 well microtiter plate (MTP) at a concentration 100-fold higher than the final concentration desired in broth. Eleven serial 2-fold dilutions of the highest concentration were made in DMSO for new compounds and in water (or appropriate solution) for reference compounds [2]. 1 μL of each well was transferred in a new MTP, which served as the test plate by subsequent inoculation. This bacterial suspension was prepared from strains that were first sub-cultured on agar plates and incubated for 18-24 hours as appropriate. Following incubation, the inoculum was prepared from isolated colonies and adjusted to 0.5 McFarland turbidity standard (1 to 2×10^8 Colony Forming Units (CFU)/mL) in 0.9% saline. The bacterial suspension was then diluted 1:200 in appropriate sterile medium and within 15 minutes 100 μL/well were dispensed. Negative controls (lack of bacterial cells) and growth control wells (lack of compound) were included in all plates. MTPs were incubated for 18-24 hours at 35±2° C. in ambient air. The MIC value of each compound, expressed as μg/mL, was determined as the lowest concentration required for complete growth inhibition (no visible growth). • [1] CLSI (2015) Methods for dilution antimicrobial susceptibility tests for bacteria that grow aerobically; Approved Standard, Tenth Edition. CLSI Document M7-A10 (ISBN 1-56238-987-4). Wayne, PA: Clinical and Laboratory Standards Institute, 19087, USA. • [2] CLSI (2017) Performance Standards for Antimicrobial Susceptibility Testing; Twenty-Fifth Informational Supplement. CLSI Document M100-S27, CLSI, Wayne, Pennsylvania 19087, USA.
Table 1 provides the Minimal Inhibitory Concentrations (MIC) in micrograms per millilitre of the compounds of present invention obtained against the strain Escherichia coli ATCC 25922.

Structure (SMILES)	MIC [µg/mL]
CO[C@H]1CN[C@H](C(=O)Nc2cc(F)c3c(c2)CC(CNCCC2CN(c4cnc5c(n4)NC(=O)CO5)C(=O)O2)C3)C1 (stereo partly drawn) [Example 44, (2S,4R)-N-[7-fluoro-2-[[2-[2-oxo-3-(3-oxo-4H-pyrazino[2,3-b][1,4]oxazin-6-yl)oxazolidin-5-yl]ethylamino]methyl]indan-5-yl]-4-methoxy-pyrrolidine-2-carboxamide]	1 (≈ 1.76 µM)
C[C@H](C(=O)Nc1cc(F)c2c(c1)C(O)C(CNCC[C@@H]1CN(c3cnc4c(n3)NC(=O)CO4)C(=O)O1)C2)N(C)C (stereo partly drawn) [Example 66, (2R)-2-(Dimethylamino)-N-[7-fluoro-3-hydroxy-2-[[2-[(5R)-2-oxo-3-(3-oxo-4H-pyrazino[2,3-b][1,4]oxazin-6-yl)oxazolidin-5-yl]ethylamino]methyl]indan-5-yl]propanamide]	4 (≈ 7.17 µM)
CN(C)C1(C(=O)Nc2cc(F)c3c(c2)CC(CNCCC2CN(c4cnc5c(n4)NC(=O)CO5)C(=O)O2)C3)CC1 (stereo not shown) [Example 2]	1 (≈ 1.81 µM)
C[C@H](C(=O)Nc1cc(F)c2c(c1)CC(F)(CNCCC1CN(c3cnc4c(n3)NC(=O)CO4)C(=O)O1)C2)N(C)C (stereo partly drawn) [Example 33, (2R)-N-[2,7-difluoro-2-[[2-[2-oxo-3-(3-oxo-4H-pyrazino[2,3-b][1,4]oxazin-6-yl)oxazolidin-5-yl]ethylamino]methyl]indan-5-yl]-2-(dimethylamino)propanamide]	0.5 (≈ 0.894 µM)
C[C@H](C(=O)Nc1cc(F)c2c(c1F)CC(O)(CNCC1CN(c3cnc4c(n3)NC(=O)CO4)C(=O)O1)C2)N(C)C (stereo partly shown) [Example 30]	1 (≈ 1.78 µM)
O=C1COc2ncc(N3CC(CCNCC4Cc5cc(NC(=O)[C@@H]6CCCN6)cc(F)c5C4)OC3=O)nc2N1 (stereo partly drawn) [Example 36, (2S)—N-[7-Fluoro-2-[[2-[2-oxo-3-(3-oxo-4H-pyrazino[2,3-b][1,4]oxazin-6-yl)oxazolidin-5-yl]ethylamino]methyl]indan-5-yl]pyrrolidine-2-carboxamide]	0.25 (≈ 0.463 µM)
O=C(O)C(F)(F)F.O=C1COc2ncc(N3CC4(CCN(CC5Cc6cc(NC(=O)[C@H]7NCC[C@@H]7O)cc(F)c6C5)CC4)OC3=O)nc2N1 (stereo partly drawn) [Example 54, (2S,3S)—N-[7-Fluoro-2-[[2-oxo-3-(3-oxo-4H-pyrazino[2,3-b][1,4]oxazin-6-yl)-1-oxa-3,8-diazaspiro[4.5]decan-8-yl]methyl]indan-5-yl]-3-hydroxy-pyrrolidine-2-carboxamide; 2,2,2-trifluoroacetic Acid]	0.25
Cc1cc(NC(=O)CN(C)C)nc2c1CC(CNCCC1CN(c3cnc4c(n3)NC(=O)CO4)C(=O)O1)C2 (stereo not shown) [Example 24]	0.5 (≈ 0.953 µM)
Cl.N[C@@]1(C(=O)Nc2cc(F)c3c(c2)CC(CNCCC2CN(c4cnc5c(n4)NC(=O)CO5)C(=O)O2)C3)CCOC1 (stereo partly drawn) [Example 41, (3S)-3-amino-N-[7-fluoro-2-[[2-[2-oxo-3-(3-oxo-4H-pyrazino[2,3-b][1,4]oxazin-6-yl)oxazolidin-5-yl]ethylamino]methyl]indan-5-yl]tetrahydrofuran-3-carboxamide; hydrochloride]	1
N#Cc1cc(NC(=O)[C@@H]2C[C@@H](O)CN2)cc2c1CC(CN1CCC3(CC1)CN(c1cnc4c(n1)NC(=O)CO4)C(=O)O3)C2 (stereo partly drawn) [Example 59, (2S,4R)—N-[7-cyano-2-[[2-oxo-3-(3-oxo-4H-pyrazino[2,3-b][1,4]oxazin-6-yl)-1-oxa-3,8-diazaspiro[4.5]decan-8-yl]methyl]indan-5-yl]-4-hydroxy-pyrrolidine-2-carboxamide]	≤ 0.06
Cc1cc(NC(=O)CN2CCC2)nc2c1CC(CNCCC1CN(c3cnc4c(n3)NC(=O)CO4)C(=O)O1)C2 (stereo not shown) [Example 26, 2-(azetidin-1-yl)-N-[4-methyl-6-[[2-[2-oxo-3-(3-oxo-4H-pyrazino[2,3-b][1,4]oxazin-6-yl)oxazolidin-5-yl]ethylamino]methyl]-6,7-dihydro-5H-cyclopenta[b]pyridin-2-yl]acetamide]	0.5 (≈ 0.932 µM)
CN1C[C@H](O)C[C@H]1C(=O)Nc1cc(F)c2c(c1)CC(CNCCC1CN(c3cnc4c(n3)NC(=O)CO4)C(=O)O1)C2 (stereo partly drawn) [Example 49, (2S,4R)—N-[7-Fluoro-2-[[2-[2-oxo-3-(3-oxo-4H-pyrazino[2,3-b][1,4]oxazin-6-yl)oxazolidin-5-yl]ethylamino]methyl]indan-5-yl]-4-hydroxy-1-methyl-pyrrolidine-2-carboxamide]	0.25 (≈ 0.439 µM)

The next lines start with the values.

MIC [µg/mL]	Structure (SMILES)
4 (≈ 7.08 µM)	C[C@H](C(=O)Nc1cc(C#N)c2c(c1)CC(O)(CNCCC1CN(c3cnc4c(n3)NC(=O)CO4)C(=O)O1)C2)N(C)C (stereo partly drawn) [Example 34, (2R)-N-[7-cyano-2-hydroxy-2-[[2-[2-oxo-3-(3-oxo-4H-pyrazino[2,3-b][1,4]oxazin-6-yl)oxazolidin-5-yl]ethylamino]methyl]indan-5-yl]-2-(dimethylamino)propanamide]
1 (≈ 1.8 µM)	O=C1COc2ncc(N3CC(CCNCC4Cc5cc(NC(=O)[C@H]6C[C@@H](O)CN6)cc(F)c5C4)OC3=O)nc2N1 (stereo partly shown) [Example 45]
1 (≈ 1.69 µM)	C[C@H](C(=O)Nc1cc(C#N)c2c(c1)CC(O)(CN1CCC3(CC1)CN(c1cnc4c(n1)NC(=O)CO4)C(=O)O3)C2)N(C)C (stereo partly drawn) [Example 35, (2R)-N-[7-cyano-2-hydroxy-2-[[2-oxo-3-(3-oxo-4H-pyrazino[2,3-b][1,4]oxazin-6-yl)-1-oxa-3,8-diazaspiro[4.5]decan-8-yl]methyl]indan-5-yl]-2-(dimethylamino)propanamide]
0.5 (≈ 0.928 µM)	Cc1nc(NC(=O)[C@@H](C)N(C)C)cc2c1CC(CNCCC1CN(c3cnc4c(n3)NC(=O)CO4)C(=O)O1)C2 (stereo partly drawn) [Example 28, (2R)-2-(dimethylamino)-N-[1-methyl-6-[[2-[2-oxo-3-(3-oxo-4H-pyrazino[2,3-b][1,4]oxazin-6-yl)oxazolidin-5-yl]ethylamino]methyl]-6,7-dihydro-5H-cyclopenta[c]pyridin-3-yl]propanamide]
0.5 (≈ 0.889 µM)	N#Cc1cc(NC(=O)[C@@H]2C[C@@H](O)CN2)cc2c1CC(CNCCC1CN(c3cnc4c(n3)NC(=O)CO4)C(=O)O1)C2 (stereo partly drawn) [Example 61, (2S,4R)—N-[7-Cyano-2-[[2-[2-oxo-3-(3-oxo-4H-pyrazino[2,3-b][1,4]oxazin-6-yl)oxazolidin-5-yl]ethylamino]methyl]indan-5-yl]-4-hydroxy-pyrrolidine-2-carboxamide]
0.5 (≈ 0.857 µM)	C[C@H](C(=O)Nc1cc(F)c2c(c1)C(O)C(CN1CCC3(CC1)CN(c1cnc4c(n1)NC(=O)CO4)C(=O)O3)C2)N(C)C (stereo partly drawn) [Example 65, (2R)-2-(Dimethylamino)-N-[7-fluoro-3-hydroxy-2-[[2-oxo-3-(3-oxo-4H-pyrazino[2,3-b][1,4]oxazin-6-yl)-1-oxa-3,8-diazaspiro[4.5]decan-8-yl]methyl]indan-5-yl]propanamide]
0.25 (≈ 0.43 µM)	CN(C)C(C)(C)C(=O)Nc1cc(F)c2c(c1)CC(CN1CCC3(CC1)CN(c1cnc4c(n1)NC(=O)CO4)C(=O)O3)C2 (stereo not shown) [Example 6]
0.25 (≈ 0.44 µM)	C[C@H](C(=O)Nc1cc(F)c2c(c1)CC(CN1CCC3(CC1)CN(c1cnc4c(n1)NC(=O)CO4)C(=O)O3)C2)N(C)C (stereo partly drawn) [Example 7, (2R)-2-(dimethylamino)-N-[7-fluoro-2-[[2-oxo-3-(3-oxo-4H-pyrazino[2,3-b][1,4]oxazin-6-yl)-1-oxa-3,8-diazaspiro[4.5]decan-8-yl]methyl]indan-5-yl]propanamide]
0.25 (≈ 0.45 µM)	CN(C)C(C)(C)C(=O)Nc1cc(F)c2c(c1)CC(CNCCC1CN(c3cnc4c(n3)NC(=O)CO4)C(=O)O1)C2 (stereo not shown) [Example 3]
0.25 (≈ 0.45 µM)	C[C@H](C(=O)Nc1cc(F)c2c(c1)CC(CN(C)CCC1CN(c3cnc4c(n3)NC(=O)CO4)C(=O)O1)C2)N(C)C (stereo partly drawn) [Example 58, (2R)-2-(Dimethylamino)-N-[7-fluoro-2-[[methyl-[2-[2-oxo-3-(3-oxo-4H-pyrazino[2,3-b][1,4]oxazin-6-yl)oxazolidin-5-yl]ethyl]amino]methyl]indan-5-yl]propanamide]
0.125 (≈ 0.226 µM)	CN1CCC[C@H]1C(=O)Nc1cc(F)c2c(c1)CC(CNCCC1CN(c3cnc4c(n3)NC(=O)CO4)C(=O)O1)C2 (stereo partly drawn) [Example 10, (2S)-N-[7-fluoro-2-[[2-[2-oxo-3-(3-oxo-4H-pyrazino[2,3-b][1,4]oxazin-6-yl)oxazolidin-5-yl]ethylamino]methyl]indan-5-yl]-1-methyl-pyrrolidine-2-carboxamide]
0.125 (≈ 0.231 µM)	C[C@H](C(=O)Nc1cc(F)c2c(c1)CC(CNCC[C@H]1CN(c3cnc4c(n3)NC(=O)CO4)C(=O)O1)C2)N(C)C (single isomer, unassigned) [Example 68]

same assay, conditions: strain Escherichia coli ATCC 25922; broth microdilution per CLSI M07-A10; 18-24 hours at 35±2° C.; lowest concentration for complete growth inhibition

Escherichia coli growth inhibition MIC [µg/mL]	Structure (SMILES)
0.5	C[C@@]1(C(=O)Nc2cc(F)c3c(c2)CC(CN2CCC4(CC2)CN(c2cnc5c(n2)NC(=O)CO5)C(=O)O4)C3)C[C@@H](O)CN1 (single isomer, unassigned) [Example 73]
